From ChEMBL document CHEMBL4715785, “Pyrazolo[1,5a]pyrimidines as a new class of FUSE binding protein 1 (FUBP1) inhibitors” (Bioorg Med Chem, 2016)
Activity calls are given as the source filed them. The calls are words filed in the database; no cut-off is given here.

Assays:
[1] = biological target: T1, Far upstream element-binding protein 1 (Homo sapiens, UniProt Q96AE4); assay: Inhibition of 6xHis-tagged human FUBP1 expressed in HEK293T cells assessed as reduction in FUBP1 interaction with biotinylated NLC chip immobilized FUSE p21 oligonucleotide incubated for 21 hrs by SPR analysis
T1 sequence (Q96AE4 whole entry): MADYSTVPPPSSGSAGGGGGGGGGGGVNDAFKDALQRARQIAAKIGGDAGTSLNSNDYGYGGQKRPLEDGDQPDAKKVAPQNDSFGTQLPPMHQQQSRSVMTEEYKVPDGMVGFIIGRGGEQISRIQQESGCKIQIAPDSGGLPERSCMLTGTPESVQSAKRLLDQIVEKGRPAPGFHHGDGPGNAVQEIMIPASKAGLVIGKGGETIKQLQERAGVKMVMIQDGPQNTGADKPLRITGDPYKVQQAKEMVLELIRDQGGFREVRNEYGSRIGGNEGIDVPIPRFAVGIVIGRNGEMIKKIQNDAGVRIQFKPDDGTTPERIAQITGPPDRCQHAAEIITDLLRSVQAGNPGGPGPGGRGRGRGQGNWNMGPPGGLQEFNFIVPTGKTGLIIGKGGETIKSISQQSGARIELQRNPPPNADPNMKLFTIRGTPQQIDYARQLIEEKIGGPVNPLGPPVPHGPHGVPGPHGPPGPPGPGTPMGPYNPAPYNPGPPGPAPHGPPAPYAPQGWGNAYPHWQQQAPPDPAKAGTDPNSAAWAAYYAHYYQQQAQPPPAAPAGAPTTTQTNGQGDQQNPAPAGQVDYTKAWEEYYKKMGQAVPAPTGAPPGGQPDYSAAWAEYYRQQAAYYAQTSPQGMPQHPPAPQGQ

[2] = tested on: HepG2; assay: Induction of cell death in human HepG2 cells assessed as increase in number of dead cells at 10 to 20 uM measured after 72 hrs; assay type: functional, cell-based; details: dose 10-20 µM
[3] = tested on: Hep 3B2; assay: Cell cycle arrest in human Hep3B cells assessed as accumulation at sub-G1 phase at 10 uM measured after 24 hrs by propidium iodide and RNase A staining based Nicoletti assay (reference value: 2.5 %); assay type: functional
[4] = tested on: Huh-7; assay: Decrease in cell expansion in human Huh-7 cells at 10 to 20 uM measured after 24 hrs by Neubauer chamber method; assay type: functional, cell-based; details: dose 10-20 µM
[5] = tested on: HepG2; assay: Decrease in cell expansion in human HepG2 cells at 10 to 20 uM measured after 48 to 72 hrs by Neubauer chamber method; assay type: functional, cell-based; details: dose 10-20 µM, time 48-72 hrs
[6] = tested on: Hep 3B2; assay: Decrease in cell expansion in human Hep3B cells at 10 to 20 uM measured after 48 to 72 hrs by Neubauer chamber method; assay type: functional, cell-based; details: dose 10-20 µM, time 48-72 hrs
[7] = tested on: Hep 3B2; assay: Cell cycle arrest in human Hep3B cells assessed as accumulation at sub-G1 phase at 20 uM measured after 24 hrs by propidium iodide and RNase A staining based Nicoletti assay (reference value: 2.5 %); assay type: functional
[8] = tested on: Hep 3B2; assay: Induction of cell death in human Hep3B cells assessed as increase in number of dead cells at 10 to 20 uM measured after 24 hrs; assay type: functional, cell-based; details: dose 10-20 µM

Cc1cc2nc(-c3ccncc3)cc(C(F)(F)F)n2n1
IC50 ([1]; hek293t): Not Active

COc1ccc(-c2cc(C(F)(F)F)n3nc(C4CC4)cc3n2)cc1OC
IC50 ([1]; read-out: IC50): 102 µM

O=[N+]([O-])c1cccc(-c2cc(C(F)(F)F)n3nc(-c4ccco4)cc3n2)c1
IC50 ([1]; hek293t): Not Active

Fc1ccc(-c2cc(C(F)(F)F)n3nc(-c4cccs4)cc3n2)cc1
IC50 ([1]; hek293t): Not Active

COc1ccc(-c2cc(C(F)(F)F)n3nc(-c4ccc(Cl)cc4)cc3n2)cc1OC
IC50 ([1]; hek293t): Not Active

FC(F)(F)c1cc(-c2ccc3c(c2)OCO3)nc2cc(-c3ccco3)nn12
IC50 ([1]; hek293t): Not Active

COc1ccc(-c2cc(C(F)(F)F)n3nc(C(C)(C)C)cc3n2)cc1OC
IC50 ([1]; hek293t): Not Active

FC(F)(F)c1cc(-c2ccc(Cl)cc2)nc2cc(-c3ccco3)nn12
IC50 ([1]; hek293t): Not Active

FC(F)(F)c1cc(-c2cccnc2)nc2cc(-c3cccs3)nn12
IC50 ([1]; read-out: IC50): > 100 µM

COc1ccc(-c2cc(C(F)(F)F)n3nc(-c4ccccc4)cc3n2)cc1OC
IC50 ([1]; hek293t): Not Active

FC(F)(F)c1cc(-c2ccco2)nc2cc(-c3ccco3)nn12
IC50 ([1]; hek293t): Not Active

FC(F)(F)c1cc(-c2cccs2)nc2cc(-c3cccs3)nn12
IC50 ([1]; read-out: IC50): > 100 µM

COc1ccc(-c2cc(C(F)(F)F)n3nc(-c4ccco4)cc3n2)cc1
IC50 ([1]; hek293t): Not Active

FC(F)(F)c1cc(-c2ccncc2)nc2cc(-c3ccco3)nn12
IC50 ([1]; hek293t): Not Active

FC(F)(F)c1cc(-c2ccc(Cl)cc2)nc2cc(-c3cccs3)nn12
IC50 ([1]; read-out: IC50): > 100 µM

FC(F)(F)c1cc(-c2ccc(Cl)cc2)nc2cc(C3CC3)nn12
IC50 ([1]; hek293t): Not Active

FC(F)(F)c1cc(-c2ccncc2)nc2cc(-c3cccs3)nn12
IC50 ([1]; read-out: IC50): > 100 µM

Cc1cc(C(F)(F)F)n2nc(-c3cccs3)cc2n1
IC50 ([1]; hek293t): Not Active

COc1ccc(-c2cc(C(F)(F)F)n3nc(-c4cccs4)cc3n2)cc1OC
Activity [2]: inactive
Activity [3]: 7.7%
Activity [4]: Active
Activity [5]: Active
Activity [6]: Active
Activity [7]: 16.1%
Activity [8]: Active

FC(F)(F)c1cc(-c2ccccn2)nc2cc(C3CC3)nn12
IC50 ([1]; hek293t): Not Active

FC(F)(F)c1cc(-c2cccc(Cl)c2)nc2cc(-c3cccs3)nn12
IC50 ([1]; hek293t): Not Active

FC(F)(F)c1cc(-c2ccc3c(c2)CCC3)nc2cc(-c3ccco3)nn12
IC50 ([1]; hek293t): Not Active

FC(F)(F)c1cc(-c2cccs2)nc2cc(-c3ccco3)nn12
IC50 ([1]; hek293t): Not Active

FC(F)(F)c1cc(-c2ccc3ccccc3c2)nc2cc(-c3ccco3)nn12
IC50 ([1]; hek293t): Not Active

FC(F)(F)c1cc(-c2nccs2)nc2cc(-c3cccs3)nn12
IC50 ([1]; hek293t): Not Active

COc1ccc(-c2cc(C(F)(F)F)n3nc(-c4cccs4)cc3n2)cc1
IC50 ([1]; read-out: IC50): > 100 µM

FC(F)(F)c1cc(-c2ccccc2)nc2cc(-c3cccs3)nn12
IC50 ([1]; read-out: IC50): > 100 µM
